Measured values from US11569513B1, “Redox flow battery carrier molecule” (Triad National Security, LLC, priority 2020, dated 2023).

Tests used:
Assay type in all cases: physicochemical
[1] = Cyclic voltammogram, negative region, 1 mM solution in 0.1M TBAPF6 in acetonitrile
Experimental: FIG. 2. Voltammogram of the […]/negative region of a 1 mM solution of Fe(TREN-Pic) in 0.1 M tetrabutylammonium hexafluorophosphate (TBAPF6) in acetonitrile (MeCN), obtained using a glassy carbon working electrode, a platinum wire counter electrode, and a 0.010 M AgBF4 reference electrode.
(§1) In the negative portion of a cyclic voltammogram four features at −0.93, −2.10, −2.28, and −2.55V are observed with current ratios (i[cathodic]/i[anodic]) of 1.01, 0.67, 1.17, and 1.01 respectively. These were obtained with a 1 mM solution of Fe(TREN-Pic) in 0.1M tetrabutylammonium hexafluorophosphate in acetonitrile using a glassy carbon working electrode, platinum wire counter, and a 0.01M silver tetrafluoroborate reference electrode. When the −0.93V wave is subjected to bulk electrolytic cycling over 25 repetitions, a high Coulombic efficiency is calculated (˜95%) with an unoptimized slow decay in utilization (electrons stored per redox carrier molecule) of 4% over the first ten cycles. […] This represents only the third known complex to display this behavior (JACS, 2016, 15378 and Journal of Power Sources, 2016, 681).

[2] = Bulk electrolytic cycling (galvanostatic 1 electron charging and discharging) of the −0.93V wave; conditions: over the first ten cycles, unoptimized
Experimental: FIG. 3. Galvanostatic 1 electron charging and discharging of a 1 mM solution of Fe(TREN-Pic) in 0.1 M TBAPF6 in MeCN, charging and discharging rates were both 1 mA and potential cutoffs were −1.3 V vs Ag^+ during charging and −0.4 V vs Ag^+ during discharging.
FIG. 5. Metrics obtained from bulk electrolysis displaying high coulombic efficiencies for the charge/discharge cycling.
as §1

[3] = Bulk cycling with broadened voltage window (galvanostatic 2 electron charging and discharging); conditions: voltage window broadened to include the next wave; over 25 cycles
Experimental: FIG. 6. Galvanostatic 2 electron charging and discharging of a 1 mM solution of Fe(TREN-Pic) in 0.1 M TBAPF6 in MeCN, charging and discharging rates were both 1 mA and potential cutoffs were −2.14 V vs Ag^+ during charging and −0.4 V vs Ag^+ during discharging.
FIG. 8. Metrics obtained from bulk electrolysis displaying high coulombic efficiencies for the charge/discharge cycling and the complexes capability to reversibly store multiple electron equivalents.
as §1

- potential of first feature in negative portion of cyclic voltammogram ([1]; 1 mM in 0.1M tetrabutylammonium hexafluorophosphate in acetonitrile, glassy carbon working electrode, platinum wire counter, 0.01M silver tetrafluoroborate reference, first feature): −0.93 V
- current ratio (i[cathodic]/i[anodic]) ([1]; feature at −0.93 V): 1.01
- current ratio (i[cathodic]/i[anodic]) ([1]; feature at −2.10 V): 0.67
- current ratio (i[cathodic]/i[anodic]) ([1]; feature at −2.28 V): 1.17
- current ratio (i[cathodic]/i[anodic]) ([1]; feature at −2.55 V): 1.01
- potential of fourth feature in negative portion of cyclic voltammogram ([1]; same conditions, fourth feature): −2.55 V
- potential of second feature in negative portion of cyclic voltammogram ([1]; same conditions, second feature): −2.10 V
- potential of third feature in negative portion of cyclic voltammogram ([1]; same conditions, third feature): −2.28 V
- decay in utilization (electrons stored per redox carrier molecule) [2]: 4%
- decay over cycling [3]: significant decay
Substance: Fe III tris(2-aminoethyl)amine (TREN) picolinic (PIC) [Fe(TREN-Pic)]
